The values below come from US20220017478A1, “2-BENZOYLAMINOBENZAMIDE DERIVATIVES AS BCL-3 INHIBITORS” (University College Cardiff Consultants Limited, priority 2013, published 2022).

Where two headings read alike, the source gives them in different places.

For one data set, the target named is T1, Bcl-3-p50 binding (Homo sapiens, UniProt P20749).
T1 construct: expressed in transfected cells; host or cells: HEK-293
T1 sequence (P20749 1-454): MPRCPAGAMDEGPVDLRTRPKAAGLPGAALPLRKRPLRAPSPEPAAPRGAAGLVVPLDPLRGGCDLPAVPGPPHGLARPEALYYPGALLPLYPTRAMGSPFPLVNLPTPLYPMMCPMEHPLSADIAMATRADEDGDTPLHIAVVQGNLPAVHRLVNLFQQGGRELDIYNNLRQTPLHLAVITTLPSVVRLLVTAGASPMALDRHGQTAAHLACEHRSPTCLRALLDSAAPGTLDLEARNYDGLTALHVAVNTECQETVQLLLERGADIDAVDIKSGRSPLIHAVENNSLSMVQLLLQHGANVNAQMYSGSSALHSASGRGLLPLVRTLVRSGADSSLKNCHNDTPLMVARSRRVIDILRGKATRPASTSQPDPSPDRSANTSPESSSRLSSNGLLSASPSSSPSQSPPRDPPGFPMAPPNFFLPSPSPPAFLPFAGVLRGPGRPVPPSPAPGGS
Briefly: Indirect sandwich ELISA of Bcl-3 binding to p50 in lysates of treated HEK-293 cells overexpressing FLAG-tagged Bcl-3. The data set is classed as cell-based. Here is the method: Proteins were extracted from cells in order to be analyzed by ELISA assay. The media from tissue culture flask was removed and cells were rinsed with ice cold PBS (Sigma, Dorset, UK). Appropriate volume of PBS (5 ml for T25, 10 ml for T80) was added into the flask and cells were removed with a cell scraper (Nunc, Leics, UK). The cell suspension was then transferred to 15 ml tubes and centrifuged at 11000 rpm for 5 min at room temperature. Resulting pellet was used for protein extraction immediately or stored at −20° C. prior use.
Non-denatured protein extract was prepared using non-denaturing lysis buffer (Table 1) and used to analyze protein-protein interaction.
Complete mini protease inhibitor tablets (Roche, Welwyn Garden City, UK), 10 mM sodium fluoride (Fluka Biochemika), 1 mM sodium pyrophospate and 1 mM sodium orthovanadate (Sigma, Dorset, UK) were added to the buffer prior use. Cell pellets were resuspended in appropriate volume of non-denaturing buffer (50-200 μl) and cultivated on ice 5 min. Cell suspensions were transferred to microcentrifuge tubes and sonicated on ice (3 times 5 s) and centrifuged at 10000 rpm for 10 min at 4° C. The resultant supernatant was used immediately or stored at −20° C. until required.
In our case, ELISA assay was used to detect either the amount of Flag-Bcl-3 protein alone or Flag-Bcl-3 in complex with p50, using indirect or sandwich ELISA respectively.
For Indirect and sandwich ELISA assay, Non-denaturing cell lysate (above) was diluted with TBS/T [tris buffer saline (TBS, Calbiochem, Merck) supplemented with 0.5% v/v Tween (Sigma, Dorset, UK)] to a concentration of 0.5-1 μg/μl and 100 μl was added onto ANTI-Flag coated flat bottom ELISA plates (Sigma, Dorset, UK). Samples were added in triplicates, while TBS/T was used as a negative control. The plate was cultivated at 37° C. for an hour followed by 3×200 μl washes with TBS/T. Primary antibodies, either Bcl-3 (Santa Cruz Biotech) for indirect ELISA and p50 for sandwich ELISA (Abcam) were added in known volumes (125 μl) and concentrations to each well, cultivated covered from light for an hour at room temperature. Another three 200 μl washes with TBS/T were performed before cultivation with alkaline phospatase (AP) conjugated secondary antibody. Meanwhile, para-nitrophenylphosphate solution (pNPP, Santa Cruz Biotechnology, California, USA) was prepared according to manufacturer's instructions (5 mg of pNPP disodium salt in 5 ml of pNPP substrate buffer). The solution was mixed well and covered from light prior to use. pNPP is a substrate of choice for use with alkaline phosphatase and produces a soluble end product that is yellow in colour. Therefore colour changes can be measured and represent the amount of AP present. After cultivation with secondary antibody, the wells were washed 3×200 μl. TBS/T, pNPP solution was added (50 μl/well) and cultivated for an hour covered from light at room temperature. The reaction was stopped by addition of 3N NaOH (20 μl/well) and the colorimetric changes were measured at 405 nm using a plate reader.
HEK-293 cells overexpressing Bcl-3 were cultivated with Compound 1a over a range of molarities for 24 hrs before cell lysates were obtained under non-denaturing conditions. […] Indirect ELISA assay was performed using Bcl-3 antibody to show an equal loading across samples treated with compound 1a (FIG. 2B) and controls (FIG. 2C).
HEK-293 Bcl-3 WT cells were cultivated with selected compounds over a range of molarities for 24 hrs before cell lysates were obtained under non-denaturing conditions. The dose response curve for selected analogues was generated using GraphPad software (FIG. 8A-D).

Data set [1] deals with NF-κB activity. The experiment in a line: NF-κB luciferase reporter assay in HEK-293 cells overexpressing Bcl-3. The class given is cell-based. The following applies: Homo sapiens, HEK293. Here is the method: (§1) For NF-κB luciferase assays, cells were seeded into clear bottom black 96-well plates (Corning Inc., Lowell, US) in antibiotic free culture media in appropriate density. After 24 hrs, cells were transfected with 10 ng of 3×κB luciferase plasmid and 10 ng of pcDNA3.1-Lacl plasmid per well. Empty pcDNA3.1 plasmid was also included to normalize the total weight of DNA transfected to 100 ng. For positive and negative controls respectively, 10 ng of pGL3control or pGL3basic were transfected in place of 3×KB luciferase plasmid. Transfection was carried out using Lipofectamine LTX reagents (Invitrogen, Paisley, UK).
(§2) After 48 hrs post-transfection with luciferase reporter plasmid, the media was aspirated and cells were lyzed using 50 μl/well of Glo-lysis buffer (Promega, Southampton, UK). The plate was left on a rocker for 20 min to facilitate complete cell lysis. […] Subsequently, 30 μl/well of Bright-Glo luciferase substrate (Promega, Southampton, UK) was added to the original plate and asses immediately for luminescence activity. The luminescence produced from either reaction was read using a Flurostar Optima plate reader (BMG tabtech, Bucks, UK).
(§3) The effect of Compound 1a on NF-κB activity was determined by NF-κB luciferase assay in MDA-MB-231 and HEK-293 cells overexpressing Bcl-3 and HEK-293 cells overexpressing p52. […]

The subject of a further data set is SKBR3 cells. The experiment in a line: Cell Titre Blue viability assay, SKBR3. The class given is cell-based, human. The following applies: Homo sapiens, SK-BR-3; SKBR3, 24 hrs, extrapolated with GraphPad; read-out: IC50 cell viability, extrapolated from the dose-response curve.
A short description of data set [2]: Cell Titre Blue viability assay, SKBR3. The class given is cell-based, human. To be noted: human, SKBR3 cells; SKBR3, 1 mM, 24 hrs; read-out: cell viability compared to DMSO control (100%).
Protocol: (§4) The viability of cells at experimental endpoints for particular assays was determined using the Cell Titre Blue reagent (Promega, Southampton, UK). This reagent measures the cellular metabolic activity using resazurin as an indicator dye. Viable cells, therefore metabolically active, will reduce resazurin into highly fluorescent resofurin. The resulting fluorescence levels are measured and indicate cell viability.
(§5) Cells were plated at low confluency into 96 well plates in 100 μl of complete growth media in triplicates and were incubated at 37° C. in 5% CO2 for the desired test exposure period. For each 100 μl of media in 96 well plates, 20 μl Cell Titre Blue reagent was added followed by incubation for an hour at 37° C. in 5% CO2. Fluorescence was then measured by setting excitation/emission wavelengths to 560/590 nm on a Flurostar Optima plate reader (BMG tabtech, Bucks, UK).
(§6) To compare the toxicity in tumorigenic as well as in non-tumorigenic breast cancer cells, we selected MCF-10A as a non-tumorigenic human breast cancer cell line and MDA-MB-231 and SKBR3 as cell models of tumorigenic human breast cancer cell line.
(§7) Cell toxicity was evaluated using the Cell Titre Blue viability assay over a range of molarities for 24 hrs.
Data set [3] deals with NF-κB activity. Briefly: NF-κB luciferase reporter assay in HEK-293 p52 overexpressing cells. The class given is cell-based. To be noted: Homo sapiens, HEK293. The method, then: as §1, §2, §3
[4] abbreviates: HEK-293 overexpressing Bcl-3, 24 hrs, read-out: IC50 Indirect Sandwich ELISA (Bcl-3-p50 binding).
[5] abbreviates: Table 3, read-out: ELISA assay (μM) IC50.

Protocol for SKBR3 cells: as §4, §5, §6, §7

In the case of `O=C(Nc1ccccc1C(=O)NCCN1CCOCC1)c1ccccc1F` [Compound 1a, 2-[(2-fluorobenzoyl)amino]-N-(2-morpholin-4-ylethyl)benzamide], the IC50 on Bcl-3-p50 binding (setting [4]) is 0.386 µM; in the data set on NF-κB activity [1] it was 0.16 µM; in the data set with SKBR3 cells it was 1370 µM; with NF-κB activity [3] it was 0.211 µM. Moreover, in data set [2], the viability at 24 h, 1 mM was determined as 57%.
`COc1ccc(C(=O)Nc2ccccc2C(=O)NCCN2CCOCC2)cc1` [Compound 1f, 2-[(4-methoxybenzoyl)amino]-N-(2-morpholin-4-ylethyl)benzamide]: the results for the IC50 at Bcl-3-p50 binding (setting [4]) and at Bcl-3-p50 binding (setting [5]) were 0.0602 µM and 0.0617 µM, respectively.
As for `O=C(Nc1ccccc1C(=O)NCCCN1CCOCC1)c1ccccc1F` [Compound 2a], the IC50 at Bcl-3-p50 binding (HEK-293 Bcl-3 WT, 24 hrs, IC50 could not be established, calculated with GraphPad, read-out: IC50 Indirect Sandwich ELISA, calculated from the dose response curve) was 15.2 µM.
`COc1cccc(C(=O)NCCN2CCOCC2)c1NC(=O)c1ccccc1F` [Compound 3a, 2-[(2-fluorobenzoyl)amino]-3-methoxy-N-(2-morpholin-4-ylethyl) benzamide]: the half-maximal inhibitory concentration (IC50) amounted to 0.119 µM at Bcl-3-p50 binding (setting [4]) and 0.0119 µM on Bcl-3-p50 binding (setting [5]).
